Test results as given in patent US11370774B2, “Substituted benzofuran, benzopyrrole, benzothiophene, and structurally related complement inhibitors” (BioCryst Pharmaceuticals, Inc., priority 2018, dated 2022).

Target: Factor D (Homo sapiens (Human), UniProt P00746)
Experiment: Factor D esterolytic assay (Z-Lys-SBzl substrate, DTNB, 405 nm)
Format: biochemical
Details: Z-Lys-SBzl 1.29 mM, pH 7.5, 10% DMSO, tested a minimum of three times, read-out: Measured Ki (IC50) Value for Compounds: IC50
Summary of the method: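 Human Factor D ([…]) with 1.29 mM Z-Lys-SBzl in 100 mM HEPES, 500 mM NaCl, pH 7.5, 10% DMSO; substrate added immediately or after room-temperature preincubation. Released thiol reacted with DTNB, rate followed at 405 nm for 600 sec, 690 nm background subtracted. IC50 from percent inhibition versus uninhibited rate, n≥3.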

Sequence of Factor D (P00746 26-253): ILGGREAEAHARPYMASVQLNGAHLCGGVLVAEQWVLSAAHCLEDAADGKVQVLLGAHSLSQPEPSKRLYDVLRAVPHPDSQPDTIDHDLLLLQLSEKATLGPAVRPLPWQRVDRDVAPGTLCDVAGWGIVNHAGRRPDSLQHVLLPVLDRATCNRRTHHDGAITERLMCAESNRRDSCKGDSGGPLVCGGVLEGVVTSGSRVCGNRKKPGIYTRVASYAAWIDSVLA

Row | IC50 | SMILES
1 | < 1000 nM | Cn1cc(-c2ccc(CC(=O)O)c(OCc3cc(-c4cccc(CN)c4)c4occc4c3)c2)cn1 [Compound 396e, 2-(2-((7-(3-(aminomethyl)phenyl)benzofuran-5-yl)methoxy)-4-(1-methyl-1H-pyrazol-4-yl)phenyl)acetic acid]
2 | < 1000 nM | COc1ccc(-c2ccc(CC(=O)O)c(OCc3cc(-c4cccc(CN)c4)c4occc4c3)c2)c(F)c1 [Compound 397e, 2-(3-((7-(3-(aminomethyl)phenyl)benzofuran-5-yl)methoxy)-2′-fluoro-4′-methoxy-[1,1′-biphenyl]-4-yl)acetic acid]
3 | < 1000 nM | NCc1cccc(-c2cc(COc3cc(-c4ccc(F)cc4)ccc3CC(=O)O)cc3ccoc23)c1 [Compound 398c, 2-(3-((7-(3-(aminomethyl)phenyl)benzofuran-5-yl)methoxy)-4′-fluoro-[1,1′-biphenyl]-4-yl)acetic acid]
4 | < 1000 nM | NCc1cccc(-c2cc(COc3c(CC(=O)O)ccc4ccccc34)cc3ccoc23)c1 [Compound 399d, 2-(1-((7-(3-(aminomethyl)phenyl)benzofuran-5-yl)methoxy)naphthalen-2-yl)acetic acid]
5 | < 1000 nM | NCc1cccc(-c2cc(COc3ccc4ccccc4c3CC(=O)O)cc3ccoc23)c1 [Compound 400e, 2-(2-((7-(3-(aminomethyl)phenyl)benzofuran-5-yl)methoxy)naphthalen-1-yl)acetic acid]
6 | < 1000 nM | NCc1cccc(-c2cc(COc3cc4ccccc4cc3CC(=O)O)cc3ccoc23)c1 [Compound 401e, 2-(3-((7-(3-(aminomethyl)phenyl)benzofuran-5-yl)methoxy)naphthalen-2-yl)acetic acid]
7 | < 1000 nM | NCc1cccc(-c2cc(N(Cc3ccccc3CC(=O)O)C(=O)OCc3ccccc3)cc3ccoc23)c1 [Compound 404c, 2-(2-(((7-(3-(aminomethyl)phenyl)benzofuran-5-yl)((benzyloxy)carbonyl)amino)methyl)phenyl)acetic acid]
8 | < 1000 nM | NCc1ccc(CC(=O)O)c(OCc2cc(-c3ccnc(CN)c3F)c3occc3c2)c1 [Compound 405e, 2-(4-(aminomethyl)-2-((7-(2-(aminomethyl)-3-fluoropyridin-4-yl)benzofuran-5-yl)methoxy)phenyl)acetic acid]
9 | < 1000 nM | NCc1cccc(-c2cc(COc3ccccc3CC(=O)O)cc3cc(CN)oc23)c1 [Compound 406e, 2-(2-((2-(aminomethyl)-7-(3-(aminomethyl)phenyl)benzofuran-5-yl)methoxy)phenyl)acetic acid]
10 | > 10000 nM | NCc1cccc(-c2cc(NC(=O)N3CCCC3CC(=O)O)cc3ccoc23)c1 (centres unmarked) [Compound 407d, 2-(1-((7-(3-(aminomethyl)phenyl)benzofuran-5-yl)carbamoyl)pyrrolidin-2-yl)acetic acid]
11 | > 10000 nM | NCc1cccc(-c2cc(NC(=O)[C@H]3CCCN3CC(=O)O)cc3ccoc23)c1 [Compound 408e, (R)-2-(2-((7-(3-(aminomethyl)phenyl)benzofuran-5-yl)carbamoyl)pyrrolidin-1-yl)acetic acid]
12 | < 1000 nM | Cc1cc2c(-c3cccc(CN)c3F)cc(COc3ccccc3CC(=O)O)cc2o1 [Compound 409f, 2-(2-((4-(3-(aminomethyl)-2-fluorophenyl)-2-methylbenzofuran-6-yl)methoxy)phenyl)acetic acid]
13 | < 1000 nM | NCc1cccc(-c2cc(COc3cc(C(N)=O)ccc3CC(=O)O)cc3ccoc23)c1F [Compound 411e, 2-(2-((7-(3-(aminomethyl)-2-fluorophenyl)benzofuran-5-yl)methoxy)-4-carbamoylphenyl)acetic acid]
14 | < 1000 nM | Cc1c(COc2ccccc2CC(=O)O)cc2ccoc2c1-c1cccc(CN)c1 [Compound 413m, 2-(2-((7-(3-(aminomethyl)phenyl)-6-methylbenzofuran-5-yl)methoxy)phenyl)acetic acid]
15 | < 1000 nM | Cc1c(COc2ccccc2CC(=O)O)cc(-c2cccc(CN)c2)c2occc12 [Compound 413n, 2-(2-((7-(3-(aminomethyl)phenyl)-4-methylbenzofuran-5-yl)methoxy)phenyl)acetic acid]
16 | < 1000 nM | N#Cc1ccc(CC(=O)O)c(OCc2cc(-c3cccc(CN)c3F)c3occc3c2)c1 [Compound 414b, 2-(2-((7-(3-(aminomethyl)-2-fluorophenyl)benzofuran-5-yl)methoxy)-4-cyanophenyl)acetic acid]
17 | < 1000 nM | COCc1cc2cc(COc3cc(C)ccc3CC(=O)O)cc(-c3cccc(CN)c3)c2o1 [Compound 415e, 2-(2-((7-(3-(aminomethyl)phenyl)-2-(methoxymethyl)benzofuran-5-yl)methoxy)-4-methylphenyl)acetic acid]
18 | < 1000 nM | COCc1cc2cc(COc3cc(C#N)ccc3CC(=O)O)cc(-c3cccc(CN)c3F)c2o1 [Compound 416d, 2-(2-((7-(3-(aminomethyl)-2-fluorophenyl)-2-(methoxymethyl)benzofuran-5-yl)methoxy)-4-cyanophenyl)acetic acid]

Row | IC50 | SMILES
19 | < 1000 nM | COCc1cc2cc(COc3cc(NC(C)=O)ccc3CC(=O)O)cc(-c3cccc(CN)c3)c2o1 [Compound 417e, 2-(4-acetamido-2-((7-(3-(aminomethyl)phenyl)-2-(methoxymethyl)benzofuran-5-yl)methoxy)phenyl)acetic acid]
20 | < 1000 nM | NCc1cccc(-c2cc(NC(=O)N3CCC[C@H]3C(=O)NCc3cccc(Cl)c3F)cc3ccoc23)c1 [Compound 418c, (S)—N1-(7-(3-(aminomethyl)phenyl)benzofuran-5-yl)-N2-(3-chloro-2-fluorobenzyl)pyrrolidine-1,2-dicarboxamide]
21 | < 1000 nM | Cc1cc2cc(COc3cc(C#N)ccc3CC(=O)O)cc(-c3cccc(CN)c3)c2o1 [Compound 419c, 2-(2-((7-(3-(aminomethyl)phenyl)-2-methylbenzofuran-5-yl)methoxy)-4-cyanophenyl)acetic acid]
22 | < 1000 nM | Cc1ccc(CC(=O)O)c(OCc2cc(-c3cccc(CN)c3)c3oc(CO)cc3c2)c1 [Compound 420e, 2-(2-((7-(3-(aminomethyl)phenyl)-2-(hydroxymethyl)benzofuran-5-yl)methoxy)-4-methylphenyl)acetic acid]
23 | < 1000 nM | CC(=O)Nc1ccc(CC(=O)O)c(OCc2cc(-c3cccc(CN)c3)c3oc(CO)cc3c2)c1 [Compound 421e, 2-(4-acetamido-2-((7-(3-(aminomethyl)phenyl)-2-(hydroxymethyl)benzofuran-5-yl)methoxy)phenyl)acetic acid]
24 | < 1000 nM | N#Cc1ccc(CC(=O)O)c(OCc2cc(-c3cccc(CN)c3)c3oc(CO)cc3c2)c1 [Compound 422e, 2-(2-((7-(3-(aminomethyl)phenyl)-2-(hydroxymethyl)benzofuran-5-yl)methoxy)-4-cyanophenyl)acetic acid]
25 | < 1000 nM | Cc1ccc(CC(=O)O)c(OCc2cc(-c3cccc(CN)c3)c3oc(C)cc3c2)c1 [Compound 423c, 2-(2-((7-(3-(aminomethyl)phenyl)-2-methylbenzofuran-5-yl)methoxy)-4-methylphenyl)acetic acid]
26 | < 1000 nM | NCc1cccc(-c2cc(COc3cc(C(N)=O)ccc3CC(=O)O)cc3cc(CO)oc23)c1 [Compound 424d, 2-(2-((7-(3-(aminomethyl)phenyl)-2-(hydroxymethyl)benzofuran-5-yl)methoxy)-4-carbamoylphenyl)acetic acid]
27 | < 1000 nM | Cc1oc2c(-c3cccc(CN)c3)cc(COc3ccccc3CC(=O)O)cc2c1Br [Compound 425f, 2-(2-((7-(3-(aminomethyl)phenyl)-3-bromo-2-methylbenzofuran-5-yl)methoxy)phenyl)acetic acid]
28 | < 1000 nM | CC(=O)Nc1ccc(CC(=O)O)c(OCc2cc(-c3cccc(CN)c3)c3oc(C)cc3c2)c1 [Compound 426c, 2-(4-acetamido-2-((7-(3-(aminomethyl)phenyl)-2-methylbenzofuran-5-yl)methoxy)phenyl)acetic acid]
29 | < 1000 nM | Cc1cc(CC(=O)O)c(OCc2cc(-c3cccc(CN)c3F)c3occc3c2)cc1C [Compound 427b, 2-(2-((7-(3-(aminomethyl)-2-fluorophenyl)benzofuran-5-yl)methoxy)-4,5-dimethylphenyl)acetic acid]
30 | < 1000 nM | Cc1cc(CC(=O)O)c(OCc2cc(-c3ccnc(CN)c3)c3occc3c2)cc1C [Compound 428c, 2-(2-((7-(2-(aminomethyl)pyridin-4-yl)benzofuran-5-yl)methoxy)-4,5-dimethylphenyl)acetic acid]
31 | < 1000 nM | Cc1cc2cc(COc3cc(C(N)=O)ccc3CC(=O)O)cc(-c3cccc(CN)c3)c2o1 [Compound 429c, 2-(2-((7-(3-(aminomethyl)phenyl)-2-methylbenzofuran-5-yl)methoxy)-4-carbamoylphenyl)acetic acid]
32 | < 1000 nM | Cc1cc(CC(=O)O)c(OCc2cc(-c3ccnc(CN)c3F)c3occc3c2)cc1C [Compound 430c, 2-(2-((7-(2-(aminomethyl)-3-fluoropyridin-4-yl)benzofuran-5-yl)methoxy)-4,5-dimethylphenyl)acetic acid]
33 | < 1000 nM | NCc1nccc(-c2cc(COc3ccccc3CC(=O)O)cc3ccsc23)c1F [Compound 431c, 2-(2-((7-(2-(aminomethyl)-3-fluoropyridin-4-yl)benzo[b]thiophen-5-yl)methoxy)phenyl)acetic acid]
34 | < 1000 nM | CC(=O)Nc1ccc(CC(=O)O)c(OCc2cc(-c3cccc(CN)c3F)c3occc3c2)c1 [Compound 432c, 2-(4-acetamido-2-((7-(3-(aminomethyl)-2-fluorophenyl)benzofuran-5-yl)methoxy)phenyl)acetic acid]
35 | < 1000 nM | N#Cc1ccc(CC(=O)O)c(OCc2cc(-c3ccnc(CN)c3)c3occc3c2)c1 [Compound 433c, 2-(2-((7-(2-(aminomethyl)pyridin-4-yl)benzofuran-5-yl)methoxy)-4-cyanophenyl)acetic acid]
